Test results: ChEMBL document CHEMBL1145390, “Synthesis and preliminary biological characterization of new semisynthetic derivatives of ramoplanin” (J Med Chem, 2007)
Values after ≈ are worked out from the molar mass of the structure shown.

Assays:
[1] = test system: Enterococcus faecalis; experiment: Antibacterial activity against Enterococcus faecalis after 24 hrs by broth microdilution method; format: functional; settings: read-out: MIC
[2] = test system: Staphylococcus aureus; experiment: Antibacterial activity against Staphylococcus aureus Smith after 24 hrs by broth microdilution method; format: functional; settings: read-out: MIC
[3] = test system: Staphylococcus aureus; experiment: Antibacterial activity against methicillin-resistant Staphylococcus aureus clinical isolate after 24 hrs by broth microdilution method; format: functional; settings: read-out: MIC
[4] = test system: Staphylococcus aureus; experiment: Antibacterial activity against methicillin-resistant and vancomycin-intermediate resistant Staphylococcus aureus clinical isolate after 24 hrs by broth microdilution method; format: functional; settings: read-out: MIC
[5] = test system: Staphylococcus aureus; experiment: Antibacterial activity against vancomycin-intermediate resistant Staphylococcus aureus clinical isolate after 24 hrs by broth microdilution method; format: functional
[6] = test system: Streptococcus pyogenes; experiment: Antibacterial activity against Streptococcus pyogenes C203 after 24 hrs by broth microdilution method; format: functional; settings: C203, 24 h, read-out: MIC
[7] = test system: Enterococcus faecalis; experiment: Antibacterial activity against vancomycin A-resistant Enterococcus faecalis after 24 hrs by broth microdilution method; format: functional; settings: read-out: MIC
[8] = test system: Enterococcus faecium; experiment: Antibacterial activity against Enterococcus faecium after 24 hrs by broth microdilution method; format: functional; settings: read-out: MIC
[9] = test system: Enterococcus faecium; experiment: Antibacterial activity against vancomycin A-resistant Enterococcus faecium clinical isolate after 24 hrs by broth microdilution method; format: functional; settings: read-out: MIC
[10] = test system: Escherichia coli; experiment: Antibacterial activity against Escherichia coli SKF-12140 after 24 hrs by broth microdilution method; format: functional; settings: read-out: MIC
[11] = test system: Candida albicans; experiment: Antifungal activity against Candida albicans SKF-2270 after 24 hrs by broth microdilution method; format: functional; settings: read-out: MIC
[12] = Toxicity assessed as hemolysis in erythrocytes at 180 mg/L; format: cell-based, Erythrocyte; settings: human, erythrocytes; read-out: Activity
[13] = Toxicity assessed as hemolysis in erythrocytes at 90 mg/L; format: cell-based, Erythrocyte; settings: human, erythrocytes; read-out: Activity

Row | Structure (SMILES) | MIC [1] | MIC [2] | MIC [3] | MIC [4] | MIC [5] | MIC [6] | MIC [7] | MIC [8] | MIC [9] | MIC [10] | MIC [11] | hemolysis at 180 mg/L [12] | hemolysis at 90 mg/L [13]
1 | CCCCCCCOc1ccc(C(=O)N[C@@H](CC(N)=O)C(=O)NC[C@@H]2C(=O)N[C@H](c3ccc(O)cc3)C(=O)N[C@H](CCCN)C(=O)N[C@H](C(C)C)C(=O)N[C@@H](c3ccc(O)cc3)C(=O)N[C@H](c3ccc(O)cc3)C(=O)N[C@@H]([C@@H](C)O)C(=O)N[C@@H](Cc3ccccc3)C(=O)N[C@H](CCCN)C(=O)N[C@@H](c3ccc(O[C@H]4O[C@H](CO)[C@@H](O)[C@H](O)[C@@H]4O[C@H]4O[C@H](CO)[C@@H](O)[C@H](O)[C@@H]4O)cc3)C(=O)N[C@H]([C@@H](C)O)C(=O)N[C@@H](c3ccc(O)cc3)C(=O)NCC(=O)N[C@@H](CC(C)C)C(=O)N[C@H](C)C(=O)N[C@@H](c3ccc(O)c(Cl)c3)C(=O)O[C@@H]2C(N)=O)cc1 | 2 µg/mL (≈ 0.755 µM) | 8 µg/mL (≈ 3.02 µM) | 4 µg/mL (≈ 1.51 µM) | 16 µg/mL (≈ 6.04 µM) | 8 µg/mL (≈ 3.02 µM) | 2 µg/mL (≈ 0.755 µM) | 2 µg/mL (≈ 0.755 µM) | 2 µg/mL (≈ 0.755 µM) | 1 µg/mL (≈ 0.378 µM) | > 32 µg/mL | > 32 µg/mL | 21% | 0%
2 | CCCCCCC(=O)N[C@@H](CC(N)=O)C(=O)NC[C@@H]1C(=O)N[C@H](c2ccc(O)cc2)C(=O)N[C@H](CCCN)C(=O)N[C@H](C(C)C)C(=O)N[C@@H](c2ccc(O)cc2)C(=O)N[C@H](c2ccc(O)cc2)C(=O)N[C@@H]([C@@H](C)O)C(=O)N[C@@H](Cc2ccccc2)C(=O)N[C@H](CCCN)C(=O)N[C@@H](c2ccc(O[C@H]3O[C@H](CO)[C@@H](O)[C@H](O)[C@@H]3O[C@H]3O[C@H](CO)[C@@H](O)[C@H](O)[C@@H]3O)cc2)C(=O)N[C@H]([C@@H](C)O)C(=O)N[C@@H](c2ccc(O)cc2)C(=O)NCC(=O)N[C@@H](CC(C)C)C(=O)N[C@H](C)C(=O)N[C@@H](c2ccc(O)c(Cl)c2)C(=O)O[C@@H]1C(N)=O | 0.5 µg/mL (≈ 0.197 µM) | 1 µg/mL (≈ 0.393 µM) | 1 µg/mL (≈ 0.393 µM) | 8 µg/mL (≈ 3.15 µM) | 4 µg/mL (≈ 1.57 µM) | < 0.03 µg/mL | 0.5 µg/mL (≈ 0.197 µM) | 1 µg/mL (≈ 0.393 µM) | 1 µg/mL (≈ 0.393 µM) | > 32 µg/mL | > 32 µg/mL | 1% | 2%
3 | CC(C)C[C@@H]1NC(=O)CNC(=O)[C@H](c2ccc(O)cc2)NC(=O)[C@@H]([C@@H](C)O)NC(=O)[C@H](c2ccc(O[C@H]3O[C@H](CO)[C@@H](O)[C@H](O)[C@@H]3O[C@H]3O[C@H](CO)[C@@H](O)[C@H](O)[C@@H]3O)cc2)NC(=O)[C@@H](CCCN)NC(=O)[C@H](Cc2ccccc2)NC(=O)[C@H]([C@@H](C)O)NC(=O)[C@@H](c2ccc(O)cc2)NC(=O)[C@H](c2ccc(O)cc2)NC(=O)[C@@H](C(C)C)NC(=O)[C@@H](CCCN)NC(=O)[C@@H](c2ccc(O)cc2)NC(=O)[C@@H](CNC(=O)[C@H](CC(N)=O)NC(=O)c2ccc(Cl)cc2)[C@@H](C(N)=O)OC(=O)[C@H](c2ccc(O)c(Cl)c2)NC(=O)[C@@H](C)NC1=O | 0.5 µg/mL (≈ 0.195 µM) | 0.5 µg/mL (≈ 0.195 µM) | 1 µg/mL (≈ 0.389 µM) | 4 µg/mL (≈ 1.56 µM) | 2 µg/mL (≈ 0.779 µM) | < 0.03 µg/mL | 0.5 µg/mL (≈ 0.195 µM) | 0.5 µg/mL (≈ 0.195 µM) | 0.5 µg/mL (≈ 0.195 µM) | > 32 µg/mL | > 32 µg/mL | 13% | 5%
4 | CC(C)C[C@@H]1NC(=O)CNC(=O)[C@H](c2ccc(O)cc2)NC(=O)[C@@H]([C@@H](C)O)NC(=O)[C@H](c2ccc(O[C@H]3O[C@H](CO)[C@@H](O)[C@H](O)[C@@H]3O[C@H]3O[C@H](CO)[C@@H](O)[C@H](O)[C@@H]3O)cc2)NC(=O)[C@@H](CCCN)NC(=O)[C@H](Cc2ccccc2)NC(=O)[C@H]([C@@H](C)O)NC(=O)[C@@H](c2ccc(O)cc2)NC(=O)[C@H](c2ccc(O)cc2)NC(=O)[C@@H](C(C)C)NC(=O)[C@@H](CCCN)NC(=O)[C@@H](c2ccc(O)cc2)NC(=O)[C@@H](CNC(=O)[C@H](CC(N)=O)NC(=O)c2ccc(O)cc2)[C@@H](C(N)=O)OC(=O)[C@H](c2ccc(O)c(Cl)c2)NC(=O)[C@@H](C)NC1=O | 16 µg/mL (≈ 6.27 µM) | 32 µg/mL (≈ 12.5 µM) | 32 µg/mL (≈ 12.5 µM) | > 32 µg/mL | > 32 µg/mL | 0.5 µg/mL (≈ 0.196 µM) | 32 µg/mL (≈ 12.5 µM) | 32 µg/mL (≈ 12.5 µM) | 32 µg/mL (≈ 12.5 µM) | > 32 µg/mL | > 32 µg/mL | 4% | 0%
5 | CC(C)C[C@@H]1NC(=O)CNC(=O)[C@H](c2ccc(O)cc2)NC(=O)[C@@H]([C@@H](C)O)NC(=O)[C@H](c2ccc(O[C@H]3O[C@H](CO)[C@@H](O)[C@H](O)[C@@H]3O[C@H]3O[C@H](CO)[C@@H](O)[C@H](O)[C@@H]3O)cc2)NC(=O)[C@@H](CCCN)NC(=O)[C@H](Cc2ccccc2)NC(=O)[C@H]([C@@H](C)O)NC(=O)[C@@H](c2ccc(O)cc2)NC(=O)[C@H](c2ccc(O)cc2)NC(=O)[C@@H](C(C)C)NC(=O)[C@@H](CCCN)NC(=O)[C@@H](c2ccc(O)cc2)NC(=O)[C@@H](CNC(=O)[C@H](CC(N)=O)NC(=O)c2ccccc2)[C@@H](C(N)=O)OC(=O)[C@H](c2ccc(O)c(Cl)c2)NC(=O)[C@@H](C)NC1=O | 4 µg/mL (≈ 1.58 µM) | 8 µg/mL (≈ 3.16 µM) | 8 µg/mL (≈ 3.16 µM) | > 32 µg/mL | 32 µg/mL (≈ 12.6 µM) | 0.125 µg/mL (≈ 0.0493 µM) | 4 µg/mL (≈ 1.58 µM) | 8 µg/mL (≈ 3.16 µM) | 4 µg/mL (≈ 1.58 µM) | > 32 µg/mL | > 32 µg/mL | 4% | 0%
6 | CC(C)C[C@@H]1NC(=O)CNC(=O)[C@H](c2ccc(O)cc2)NC(=O)[C@@H]([C@@H](C)O)NC(=O)[C@H](c2ccc(O[C@H]3O[C@H](CO)[C@@H](O)[C@H](O)[C@@H]3O[C@H]3O[C@H](CO)[C@@H](O)[C@H](O)[C@@H]3O)cc2)NC(=O)[C@@H](CCCN)NC(=O)[C@H](Cc2ccccc2)NC(=O)[C@H]([C@@H](C)O)NC(=O)[C@@H](c2ccc(O)cc2)NC(=O)[C@H](c2ccc(O)cc2)NC(=O)[C@@H](C(C)C)NC(=O)[C@@H](CCCN)NC(=O)[C@@H](c2ccc(O)cc2)NC(=O)[C@@H](CNC(=O)[C@H](CC(N)=O)NC(=O)c2ccc(OCc3cccc(Cl)c3)cc2)[C@@H](C(N)=O)OC(=O)[C@H](c2ccc(O)c(Cl)c2)NC(=O)[C@@H](C)NC1=O | 0.5 µg/mL (≈ 0.187 µM) | 1 µg/mL (≈ 0.374 µM) | 2 µg/mL (≈ 0.748 µM) | 8 µg/mL (≈ 2.99 µM) | 8 µg/mL (≈ 2.99 µM) | 0.13 µg/mL (≈ 0.0486 µM) | 0.13 µg/mL (≈ 0.0486 µM) | 0.5 µg/mL (≈ 0.187 µM) | 0.25 µg/mL (≈ 0.0935 µM) | > 32 µg/mL | > 32 µg/mL | 100% | 25%
7 | CCCCCCCCc1ccc(C(=O)N[C@@H](CC(N)=O)C(=O)NC[C@@H]2C(=O)N[C@H](c3ccc(O)cc3)C(=O)N[C@H](CCCN)C(=O)N[C@H](C(C)C)C(=O)N[C@@H](c3ccc(O)cc3)C(=O)N[C@H](c3ccc(O)cc3)C(=O)N[C@@H]([C@@H](C)O)C(=O)N[C@@H](Cc3ccccc3)C(=O)N[C@H](CCCN)C(=O)N[C@@H](c3ccc(O[C@H]4O[C@H](CO)[C@@H](O)[C@H](O)[C@@H]4O[C@H]4O[C@H](CO)[C@@H](O)[C@H](O)[C@@H]4O)cc3)C(=O)N[C@H]([C@@H](C)O)C(=O)N[C@@H](c3ccc(O)cc3)C(=O)NCC(=O)N[C@@H](CC(C)C)C(=O)N[C@H](C)C(=O)N[C@@H](c3ccc(O)c(Cl)c3)C(=O)O[C@@H]2C(N)=O)cc1 | 4 µg/mL (≈ 1.51 µM) | 8 µg/mL (≈ 3.02 µM) | 8 µg/mL (≈ 3.02 µM) | 16 µg/mL (≈ 6.05 µM) | 16 µg/mL (≈ 6.05 µM) | 2 µg/mL (≈ 0.756 µM) | 4 µg/mL (≈ 1.51 µM) | 4 µg/mL (≈ 1.51 µM) | 4 µg/mL (≈ 1.51 µM) | > 32 µg/mL | > 32 µg/mL | 72% | 95%
8 | CCOc1ccc(C(=O)N[C@@H](CC(N)=O)C(=O)NC[C@@H]2C(=O)N[C@H](c3ccc(O)cc3)C(=O)N[C@H](CCCN)C(=O)N[C@H](C(C)C)C(=O)N[C@@H](c3ccc(O)cc3)C(=O)N[C@H](c3ccc(O)cc3)C(=O)N[C@@H]([C@@H](C)O)C(=O)N[C@@H](Cc3ccccc3)C(=O)N[C@H](CCCN)C(=O)N[C@@H](c3ccc(O[C@H]4O[C@H](CO)[C@@H](O)[C@H](O)[C@@H]4O[C@H]4O[C@H](CO)[C@@H](O)[C@H](O)[C@@H]4O)cc3)C(=O)N[C@H]([C@@H](C)O)C(=O)N[C@@H](c3ccc(O)cc3)C(=O)NCC(=O)N[C@@H](CC(C)C)C(=O)N[C@H](C)C(=O)N[C@@H](c3ccc(O)c(Cl)c3)C(=O)O[C@@H]2C(N)=O)cc1 | 2 µg/mL (≈ 0.776 µM) | 1 µg/mL (≈ 0.388 µM) | 2 µg/mL (≈ 0.776 µM) | 32 µg/mL (≈ 12.4 µM) | 8 µg/mL (≈ 3.1 µM) | < 0.03 µg/mL | 2 µg/mL (≈ 0.776 µM) | 2 µg/mL (≈ 0.776 µM) | 2 µg/mL (≈ 0.776 µM) | > 32 µg/mL | > 32 µg/mL | 1% | 1%
